According to publication PMC4467139, “Garcinol sensitizes human head and neck carcinoma to cisplatin in a xenograft mouse model despite downregulation of proliferative biomarkers” (Oncotarget, 2015):
Read-outs that look alike come from different tables or passages of the source. Peptide text beside a SMILES is read from it. * marks the point of attachment. Cbz = O=C(OCc1ccccc1)*; CH2F = FC*

How the values were obtained:
[1] = test system: PARP cleavage in CAL27 cells; assay: Western blot of PARP cleavage; format: cell-based, human; settings: Z-VAD-fmk 20 μM together with 15 μM garcinol and 5 μM cisplatin, 48 h
Description: Vehicle or drug-treated whole-cell extracts were lysed in lysis buffer [250 mM NaCl, 20 mM HEPES, 2 mM EDTA (pH 8.0), 0.5 mM EGTA, 0.1% Triton X-100, 1.5 μg/mL aprotinin, 1.5 μg/mL leupeptin, 1 mM phenylmethylsulfonylfluoride (PMSF), and 1.5 mM NaVO4]. Lysates were then spun at 13,300 rpm for 10 min to remove insoluble material and resolved on a 10% SDS gel. After electrophoresis, the proteins were electrotransferred to a nitrocellulose membrane (Bio-Rad), blocked with Blocking One (Nacalai Tesque, Inc.), and probed with antibodies of interest overnight at 4 °C. The blot was washed with TBS with 0.1% Tween-20, exposed to HRP-conjugated secondary antibodies for 1 h, and finally examined by chemiluminescence using Western Bright Sirius HRP substrate (Advansta).
Supplementary Figure 2: Z-VAD-fmk abrogates the garcinol-induced caspase-3 activation. CAL27 cells (5 × 10^5 cells/mL) were treated with 15 μM garcinol and/or 5 μM cisplatin for 48 h in the absence or presence of 20 μM Z-VAD-fmk, whole-cell extracts were prepared, separated by SDS-PAGE, and subjected to western blot against PARP antibody. The same blot was stripped and reprobed with β-actin antibody to verify equal protein loading.
(also on this page, place not known: www.impactjournals.com/oncotarget/ Oncotarget, Materials 2014 Supplementary Z-V AD-fmk 10 5 Z-V AD-fmk,) […]

CAL27 xenografts = assay: HNSCC xenograft mouse model, tumor volume; format: in vivo, athymic nu/nu female mice; settings: 4 weeks, garcinol 0.5 mg/kg i.p. five times/week, cisplatin 2 mg/kg i.p. twice weekly
Description: (§1) All procedures involving animals were reviewed and approved by NUS Institutional Animal Care and Use Committee. Six-week old athymic nu/nu female mice (Animal Resource Centre, Australia) were implanted subcutaneously in the right flank with CAL27 cells (3 × 10^6 cells/100 μL saline). When tumors have reached 0.25 cm in diameter, the mice were randomized into the following treatment groups (n = 5/group): (I) untreated control (0.1% DMSO, 100 μL daily); (II) garcinol (0.5 mg/kg body weight, suspended in 0.1% DMSO, intraperitoneal [i.p.] injection, five times/week); (III) cisplatin alone (2 mg/kg body weight, suspended in 0.1% DMSO, i.p. injection, twice/week); and (IV) combination (garcinol, 0.5 mg/kg body weight, i.p. injection, five times/week and cisplatin, 2 mg/kg body weight, i.p. injection, twice/week). Therapy was continued for 4 weeks, and the animals were euthanized 24 h after the last dose. Primary tumors were excised and the final tumor volume was calculated using the formula V = L × (W)^2/2 where L is the length and W is the width. Half of the tumor tissue was fixed in formalin and embedded in paraffin for immunohistochemistry (IHC) analysis. The other half was snap frozen in liquid nitrogen and stored at −80°C.

MDA686LN cells = assay: MTT cell viability assay; format: cell-based; settings: Homo sapiens, 72 h
Description: (§2) The inhibitory effect of garcinol against HNSCC cell growth was determined by the MTT dye uptake method as described previously. Briefly, the cells (5 × 10^4 cells/mL) were incubated in triplicate in a 96-well plate in the presence or absence of different concentrations of garcinol in a final volume of 0.2 mL for indicated time intervals at 37 °C. Thereafter, 20 μL MTT solution (5 mg/mL in PBS) was added to each well. After a 2 h incubation at 37°C, 0.1 mL lysis buffer (20% SDS, 50% dimethylformamide) was added after removal of the medium, incubation was continued at 37°C for 1 h, and then the optical density (OD) at 570 nm was measured by the Safire2™ microplate reader (Tecan).

UMSCC1 cells = assay: MTT cell viability assay; format: cell-based; settings: Homo sapiens, UMSCC1, 72 h
Description: as §2

CAL27 cells = assay: MTT cell viability assay; format: cell-based; settings: Homo sapiens, CAL-27, CAL27, 72 h
Description: as §2, with “(Tecan). […]” for “(Tecan).”
www.impactjournals.com/oncotarget/ Oncotarget, Supplementary Materials 2015 […]
Supplementary Figure 1: (A) Garcinol augments the cytotoxic effect of cisplatin in HNSCC cells. CAL27 cells (1 × 10^4 cells/well) were exposed for 48 h to different concentrations of garcinol and cisplatin, and their combination and then subjected to MTT assay to analyze the viability of tumor cells. (B) Assessment on the type of combination relationship was done using the method developed by Chou-Talalay multiple drug effect equation. The degree of synergy was assessed based on CI values, where CI values of > 1.0 implies antagonism, 1.0 implies additive and < 1.0 implies synergistic effect relationships. […]

[2] = test system: NF-κB-dependent reporter gene expression in MDA686Tu cells; assay: NF-κB luciferase reporter assay; format: cell-based, human; settings: 12 h
Description: MDA686Tu cells (1 × 10^4 cells/well) in 96-well were transfected of plasmid with NF-κB responsive […] elements linked to a luciferase reporter gene using lipofectamine® 2000. After transfection for 48 h, indicated concentrations of garcinol were added into the wells for 12 h. Luciferase activity was determined using Bright-Glo™ luciferase assay kit from Promega.

[3] = Pharmacokinetics study of garcinol in mice; format: in vivo; settings: nude, ip, mouse serum; for AUC: read-out: area under the serum concentration-time curve (AUC) at 8 h; for Cmax: read-out: peak serum concentration (Cmax); for Tmax: read-out: time of peak serum concentration post-dose
Description: Pharmacokinetics of garcinol was conducted in nude mice by i.p. injection at dose of 0.5 mg/kg or 2 mg/kg. The mice were allowed food and water ad libitum before pharmacokinetics experiment. About 150 μL of blood was taken from facial vein of mice at 10 min, 30 min, 1, 2, 4, 6, and 8 h post-dose. After centrifugation of blood samples at 14,000 rpm at 4°C for 10 min, mouse sera (the supernatant) were transferred into Eppendorf tube. 10 μL of each serum was processed by adding 3-folds excess of acetonitrile-containing isogarcinol, the internal standard followed by vortexing for 1 min. The tube was then centrifuged at 14,000 rpm at 4°C for 10 min. Then 30 μL of the supernatants were transferred into glass inserts (250 μL) with 70 μL of 10 mM ammonia acetate solution. 50 μL of processed serum samples were injected into LC-MS/MS which was carried out under negative electrospray ionization (ESI) and multiple reaction monitoring (MRM) mode. […] The daughter ion monitored for garcinol and isogarcinol was 409 and 335, respectively. SCIEX Analyst software (version 1.4.2) was used for data acquisition and analysis.

[4] = Body weight during xenograft experiment; format: in vivo, athymic nu/nu female mice; settings: four week treatment; garcinol 0.5 mg/kg i.p. five times/week, alone or with cisplatin 2 mg/kg i.p. twice weekly
Description: as §1

SMILES | effect on increased PARP cleavage [1] | reduction of tumor volume (CAL27 xenografts) | IC50 (MDA686LN cells) | IC50 (UMSCC1 cells) | IC50 (CAL27 cells) | NF-κB-dependent reporter gene expression [2] | AUC ([3]; 0.5 mg/kg i.p.) | Cmax ([3]; 0.5 mg/kg i.p.) | Tmax ([3]; 0.5 mg/kg i.p.) | AUC ([3]; 2 mg/kg i.p.) | Cmax ([3]; 2 mg/kg i.p.) | Tmax ([3]; 2 mg/kg i.p.) | body weight of the animals [4]
COC(=O)C[C@H](NC(=O)[C@H](C)NC(=O)[C@@H](NC(=O)OCc1ccccc1)C(C)C)C(=O)CF [Z-VAD-fmk] (Cbz-Val-Ala-Asp(OMe)-CH2F) | completely blocked |  |  |  |  |  |  |  |  |  |  |  | 
N.N.[Cl][Pt][Cl] [cisplatin, cis-dichloro-diammineplatinum (II)] |  | 50% |  |  |  |  |  |  |  |  |  |  | 
C=C(C)[C@@H](CC=C(C)C)C[C@@]12C[C@@H](CC=C(C)C)C(C)(C)[C@@](CC=C(C)C)(C(=O)C(C(=O)c3ccc(O)c(O)c3)=C1O)C2=O [garcinol] |  | 50% | 13.8 µM | 11.6 µM | 14.7 µM | significantly abrogate | 4.3 µM·h | 1.83 µM | 30 min | 16.9 µM·h | 6.64 µM | 30 min | no significant loss of body weight
